Experimental data reported in patent publication US20230145868A1, “UREA INHIBITORS OF MICRO-RNA” (Board of Regents, The University of Texas System, priority 2020, published 2023).
Read-outs that look alike come from different tables or passages of the source.

Columns and labels:
[1] = test system: AGS cell line; assay: Migration assay, AGS; type: cell-based, human; conditions: vs DMSO
[2] = test system: pre-miR-10b; assay: RT-qPCR of precursor miR-10b; type: cell-based, human; conditions: normalized to U6, vs DMSO
Experimental: (§1) Potential small molecule miRNA inhibitors were tested in MCF7 cells, a metastatic cell line (MM231) and an HCC cell line (HepG2) through RT-qPCR. Cells were seeded in 12-well plates 24 h before treatments at a confluence of 50-60%. They were treated at a concentration of 10 μM linifanib (positive control) or DMSO (negative control), and RNA was collected after 24 and 48 h. MicroRNA expression was tested using TaqMan microRNA assay (Applied Biosystems). The cDNA was synthesized using TaqMan Reverse Transcription Reagents kit (Applied Biosystems) and employed for quantitative RT-qPCR analysis together with TaqMan probes and SsoFastSupermix (Bio-rad). Primers and probes were purchased for hsa-miR-10b, hsa-pri-miR-10b, U6, and U48 snRNA that was used as an internal control.
(§2) To detect the levels of the precursor sequences, cDNA was synthesized using the SuperScript III cDNA kit (Invitrogen). Diluted cDNA was used for RT-qPCR analysis using iQ SYBR Green Supermix (Bio-Rad) with primers designed by in-house. Experiments were performed in triplicate; treated samples were compared to the DMSO-treated controls and normalized to the internal control. Relative expression levels were calculated using the 2-ΔCt method.

[3] = test system: AsPC1 cell line; assay: Cell proliferation assay (WST-8 or MTS), AsPC1; type: cell-based, human
Experimental: IC50 dose-response curves were determined using the cell proliferation assay system. Briefly, 5,000 or 10,000 cells of each cell line were plated in 96-well microculture plates in replicates of either 4 or 6. When cells became adherent, either 5 or 10 sequentially decreasing doses of the small molecule miRNA inhibitor were diluted into new media and added to individual wells. After either 24 or 48 hours, of a tetrazolium salt such as MTS, MTT, or WST-8 was added to each well at the same time of day as treatment and incubated for either 2 or 3 h at 37° C. The OD, measuring at the appropriate wavelength for the dye, was read at on a microplate spectrophotometer.
Cell proliferation is determined using a colorimetric assay. A tetrazolium salt such as MTS, MTT, or WST-8 is reduced by dehydrogenase activities in cells to give a formazan dye, which is soluble in the tissue culture media. The amount of the formazan dye (generated by the activities of dehydrogenases in cells, and directly proportional to the number of living cells) is measured after 3 h of incubation. The OD is read at 450 nm on a microplate spectrophotometer and growth values (%) are calculated as (OD treated cells/OD untreated cells)×100. The experiments are performed in triplicate. […] The OD is read at 450/550 nm on a microplate spectrophotometer, after one to seven days of the treatment. […]

[4] = test system: mature miR-10b; assay: RT-qPCR of mature miR-10b; type: cell-based, human; conditions: normalized to U6, vs DMSO
Experimental: as §1, §2

[5] = test system: HOXD10; assay: Western blot, HOXD10 expression; type: cell-based, human; conditions: vs DMSO
Experimental: Proteins are collected from cultured cells and lysed with 10× Lysis Buffer (Cell Signaling) freshly supplemented with a complete protease inhibitor cocktail and phosphatase inhibitors (Sigma). Bradford assay is used to measure protein concentration. Proteins are separated by polyacrylamide gel (Bio-rad) electrophoresis and were transferred to a 0.2 μm nitrocellulose membrane (Bio-rad). Quantification of protein expression was conducted using the image analysis software ImageJ.

[6] = test system: miR-10b; assay: Luciferase reporter assay of miR-10b inhibition, MDA-MB-231 cells; type: cell-based; conditions: Homo sapiens, MDA-MB-231, 48 h
Source text: To identify miR-10b inhibitors, a luciferase reporter system was designed with complementary oligonucleotides for miR-10b.This luciferase reporter would repress Renilla luciferase signal in the presence of a functional mature miR-10b. However, in the presence of a small molecule that can inhibit mature miR-10b expression or affect its downstream function, the luciferase expression is restored again.
The PsiCHECK™-2 luciferase reporter vector was acquired from Promega™, Complementary oligonucleotides for hsa-miR-10b were designed based on the mature miRNA sequence and obtained from Thermo Fisher Scientific. In the design of the microRNA target sequence, several base pairs were added to have two different restriction sites recognizable by the enzyme SgfI at one side, and PmeI on the other (present in the vector as well). In addition, the insert was designed with a restriction site for SacI enzyme in order to have an additional site to digest the vector when monitoring colonies for the presence/absence of the insert. The designed oligonucleotides were annealed as follows: Complementary strands were mixed at a 1:1 molar ratio in a micro centrifuge tube. The mixture was diluted to a final concentration of 1 pmol/μl with a buffer solution of 10 mM Tris, 1 mM EDTA, and 50 mM NaCl (pH 8.0). Mixes were incubated at 95° C. for 5 min, and then the heat was reduced gradually for 70 min, until reaching 4° C. The annealed oligonucleotides were digested along with the PsiCHECK™2 vector with SgfI and PmeI and ligated at the 3′-UTR (downstream) of the Renilla luciferase reporter gene in the PsiCHECK™-2vector. Insert sequences were further confirmed in two ways: enzymatic digestion and sequencing.
MCF7 cells were seeded 24 h prior to transfection in 96 well plates (2.0×10^4 cells/well). For testing the sensitivity of the assay, antagomiRs and pre-miRs against miR-10b were used at a final concentration of 100 nM. For testing small molecule miRNA inhibitors, the compounds of interest were added to a final concentration of 10 μM. The assay was done in MCF7 or MDA-MB-231 cells at approximately 60% confluence using Lipofectamine in Opti-Mem media with the final vector concentration of 250 ng/mL. All transfections were performed in triplicate for statistical analysis. The cells were incubated at 37° C. for 6 h, followed by replacement of the transfected media with fresh media. After 48 h incubation, the media was removed, and cells were lysed and assayed with a Dual Luciferase Assay Kit (Promega) using a Vi-Tech luminometer. The ratio of Renilla to firefly luciferase expression was calculated for each of the triplicates.

[7] = Table 5, MDA-MB-231, 10 μM compound, vs negative control (DMSO), mean of triplicate, read-out: n-fold increase in luciferase expression, Mean
[8] = Table 5, MDA-MB-231, 10 μM compound, vs negative control (DMSO), replicate #1, read-out: n-fold increase in luciferase expression, #1
[9] = Table 5, MDA-MB-231, 10 μM compound, vs negative control (DMSO), replicate #2, read-out: n-fold increase in luciferase expression, #2
[10] = Table 5, MDA-MB-231, 10 μM compound, vs negative control (DMSO), replicate #3, read-out: n-fold increase in luciferase expression, #3
[11] = Table 7, MDA-MB-231, second biological replicant, 10 μM compound, mean of triplicate, read-out: n-fold increase in luciferase expression, Mean
[12] = Table 7, MDA-MB-231, second biological replicant, 10 μM compound, replicate #1, read-out: n-fold increase in luciferase expression, #1
[13] = Table 7, MDA-MB-231, second biological replicant, 10 μM compound, replicate #2, read-out: n-fold increase in luciferase expression, #2
[14] = Table 7, MDA-MB-231, second biological replicant, 10 μM compound, replicate #3, read-out: n-fold increase in luciferase expression, #3

SMILES	migration [1]	expression of pre-miR-10b ([2]; AGS gastric cell line)	expression of pre-miR-10b ([2]; AsPC1 pancreatic cell line)	proliferation (MTS), every 24 h over 96 h ([3]; 5 and 10 μM, beginning at 48 h of treatment)	level of mature miR-10b ([4]; AGS gastric cell line)	level of mature miR-10b ([4]; AsPC1 pancreatic cell line)	HOXD10 expression (Western blot) ([5]; AGS cell line)	HOXD10 expression (Western blot) ([5]; AsPC1 cell line)	fold induction at 10 µM [6, 7]	fold induction at 10 µM [6, 8]	fold induction at 10 µM [6, 9]	fold induction at 10 µM [6, 10]	fold induction at 10 µM [6, 11]	fold induction at 10 µM [6, 12]	fold induction at 10 µM [6, 13]	fold induction at 10 µM [6, 14]	proliferation ([3]; 10 μM, vs DMSO)
Cc1ccc(F)c(NC(=O)Nc2ccc(-c3cccc4cn[nH]c34)cc2)c1 [Example 4, 1-(4-(1H-indazol-7-yl)phenyl)-3-(2-fluoro-5-methylphenyl)urea]	decreased migration	increasing precursor miRNA transcript	increasing precursor miRNA transcript	significant difference in proliferation	reduces the level of mature miR-10b	reduces the level of mature miR-10b	upregulated	upregulated	1.43	1.36	1.7	1.24	1.55	1.81	1.8	1.05	
Cc1ccc(F)c(NC(=O)Nc2ccc(-c3cncnc3)cc2)c1 [Example 2, 1-(2-fluoro-5-methylphenyl)-3-(4-(pyrimidin-5-yl)phenyl)urea]	decreased migration	increased expression of pre-miR-10b	increased expression of pre-miR-10b		reduce the level of mature miR-10b	reduces the level of mature miR-10b	upregulated		1.58	1.45	1.9	1.38	2.13	2.38	1.88	2.15	reduced proliferation
